Results: patent publication US11964938B2, “3-phenyl-4-hexynoic acid derivatives as GPR40 agonists” (CELON PHARMA S.A., priority 2018, dated 2024)

Experiments:
[1] = target: T1, human GPR40 receptor (Homo sapiens, UniProt O14842); assay: Analysis of receptor activation - calcium ions concentration measurement (aequorin luminescence); format: cell-based; details: enhancement or decrease of activity in relation to reference TAK-875, from EC50 values
T1 construct: host or cells: CHO-K1 (co-expressing aequorin)
T1 sequence (O14842 whole entry): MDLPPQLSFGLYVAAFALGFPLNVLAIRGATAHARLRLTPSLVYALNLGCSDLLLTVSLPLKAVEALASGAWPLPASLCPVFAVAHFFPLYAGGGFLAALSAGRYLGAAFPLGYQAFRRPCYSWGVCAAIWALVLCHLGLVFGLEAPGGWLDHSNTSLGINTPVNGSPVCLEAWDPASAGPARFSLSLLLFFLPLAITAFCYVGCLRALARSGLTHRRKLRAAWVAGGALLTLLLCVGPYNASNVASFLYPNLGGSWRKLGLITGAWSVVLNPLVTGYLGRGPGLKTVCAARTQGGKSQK
Source text: Experiment B1: Analysis of Receptor Activation—Calcium Ions Concentration Measurement.
As a result of the measurement, luminescence change in the time curve were obtained, the integration of which allowed to calculate the relative amount of calcium ions released to cytosol. […] Curves plotted from obtained results allowed to determine EC50 values.

[2] = system: MIN6 (mouse insulinoma) cells; assay: Glucose-dependent insulin release in mouse insulinoma cells (MIN6); format: cell-based; details: multiplicity of insulin efflux increase in relation to control; 10 uM compound, 20 mM glucose, 1 hour
Experimental: Experiment B2: Glucose-Dependent Insulin Release in Mouse Insulinoma Cells (MIN6).
MIN6 (mouse insulinoma) cells were seeded on a plate covered with PDL (poly-D-lysine) at 5×10^5/well and cultured for 48 hours. […] Tested compounds, after dilution to the concentration of 10-40 uM in KRBH buffer with the addition of 20 mM glucose, were added to the cells and incubated for 1 hour to induce insulin release. Negative control was KRBH buffer with the addition of 2 mM glucose. Concentration of released insulin was determined using ELISA test (Mercodia).
Table 4 present MIN6Insulin @10 uM values for representative compounds of the invention. MIN6Insulin @10 uM value is a multiplicity of insulin efflux increase in relation to control experiment, following addition of 10 uM of tested compound.

[3] = system: Wistar HAN Crl:WI (HAN) rats; assay: Glucose tolerance test in vivo on rats; design: species or system rat; details: 10 mg/kg oral single dose, blood; for AUC for glucose (0-540 min.): i.p. glucose bolus at t=0 and 6 h; for AUC for insulin (0-180 min.): i.p. glucose bolus
Experimental: Experiment B3: Glucose Tolerance Test In Vivo on Rats.
To evaluate glucose lowering effect of the compounds in in vivo study, glucose tolerance test (GTT) was performed. The study was performed on male outbred Wistar HAN Crl:WI (HAN) rats from Charles River, weight about 250-300 g, 8-10 weeks old. Rats were starved for 12 hours (with free access to water).
At time point t=0 animals were given orally a single dose of a compound (by a gastric tube) and immediately (t=0) and after 6 hour (t=6 h) intraperitoneal (i.p.) glucose bolus ([…]). At time points t=0 (just before oral administration of the compounds and intraperitoneal glucose administration), 0.25, 0.5, 1, 2, 2.5, 3, 6, 6.25, 7, 8, and 9 h blood samples from tail vein were collected from each animal for glucose level determination using Accu-chek glucometer (Roche Diagnostics) and additionally at t=0.25, 0.5, 1, 2, 2.5, and 3 h blood samples from tail vein were collected for insulin level measurement using ELISA test (Mercodia).
Tested compound were prepared in 5% DMSO/40% PEG300/55% PBS vehicle and administered at the dose of 10 mg/kg body weight in a volume of 0.5 ml/100 g body weight. After 4 hours after tested compound administration animals were given standard diet to the cages. Decrease of AUC value for glucose level in blood was calculated and the results for selected compounds of the invention are presented in Table 5. Analysis was performed using GraphPad prism software.

[4] = system: diabetes STZ-treated mice; assay: Von Frey test on diabetes STZ-treated mice (tactile allodynia); format: in vivo, mouse; details: 60 minutes after administration, mean of group
Experimental: Experiment B5: Von Frey Test on Diabetes STZ-Treated Mice.
Tactile allodynia was assessed by electronic von Frey apparatus (Bioseb) equipped with a flexible filament. Reaction to stimuli was assessed using growing applied pressure (from 0 to 10 g) on a plantar side of the hind foot of mice. Pregabalin was a control, as reference healthy mice with preserved normal response to the stimuli were used. In the day of the experiment, mice were placed separately in cages with a wire mesh bottom for 1 h for habituation to experimental conditions. After habituation period, each mouse was treated 3 times alternately, with 30 s intervals between each measurement, to obtain starting values (before administration of the compound) of pain sensitivity. […] The results are presented in Table 7 as mean value for all mice in a given group (n=7-10).

[5] = I phase of clinical trials; cited from earlier work

Row | Structure (SMILES) | % PTAK-875 [1] | also measured
1 | CC#C[C@@H](CC(=O)O)c1ccc(OCCC)cc1 [Example F1, (3S)-3-(4-propoxyphenyl)hex-4-ynoic acid] | D (21-50% PTAK-875) | 
2 | CC#C[C@@H](CC(=O)O)c1ccc(OCC#CCC)cc1 [Example F22, (3S)-3-[4-(pent-2-yn-1-yloxy)phenyl]hex-4-ynoic acid] | C (51-80% PTAK-875) | 
3 | CC#C[C@@H](CC(=O)O)c1ccc(OC/C=C/CCC)cc1 [Example F18, (3S)-3-{4-[(2E)-hex-2-en-1-yloxy]phenyl}hex-4-ynoic acid] | A (>120% PTAK-875) | 
4 | CC#CC(CC(=O)O)c1ccc(OCC(C)(C)C)cc1 (racemic) [Example F26, (3R/S)-3-[4-(2,2-dimethylpropoxy)phenyl]hex-4-ynoic acid] | E (<20% PTAK-875) | 
5 | CC#C[C@@H](CC(=O)O)c1ccc(OCC(C)C(C)C)cc1 (mixture of isomers) [Example F37, (3S)-3-{4-[(2R/S)-2,3-dimethylbutoxy]phenyl}hex-4-ynoic acid] | A (>120% PTAK-875) | 
6 | C=C(C)CCOc1ccc([C@@H](C#CC)CC(=O)O)cc1 [Example F30, (3S)-3-{4[(3-methylbut-3-en-1-yl)oxy]phenyl}hex-4-ynoic acid] | A (>120% PTAK-875) | 
7 | CC#C[C@@H](CC(=O)O)c1ccc(OCCC(C)CC)cc1 (mixture of isomers) [Example F38, (3S)-3-(4-{[(3R/S)-3-methylpentyl]oxy}phenyl)hex-4-ynoic acid] | B (81-120% PTAK-875) | 
8 | C=C(C)/C=C/COc1ccc([C@@H](C#CC)CC(=O)O)cc1 [Example F34, (3S)-3-(4-{[(2E)-4-methylpenta-2,4-dien-1-yl]oxy}phenyl)hex-4-ynoic acid] | A (>120% PTAK-875) | melting point: 94.7 to 95.7 °C
9 | CC#C[C@@H](CC(=O)O)c1ccc(OCCCC)cc1 [Example F2, (3S)-3-(4-butoxyphenyl)hex-4-ynoic acid] | A (>120% PTAK-875) | 
10 | CC#C[C@@H](CC(=O)O)c1ccc(OCCCCCCC)cc1 [Example F5, (3S)-3-[4-(heptyloxy)phenyl]hex-4-ynoic acid] | A (>120% PTAK-875) | 
11 | CC#C[C@@H](CC(=O)O)c1ccc(OCC(C)=C(C)C)cc1 [Example F33, (3S)-3-{4-[(2,3-dimethylbut-2-en-1-yl)oxy]phenyl}hex-4-ynoic acid] |  | MIN6Insulin @10 uM [2]: 3.895; AUC for glucose (0-540 min.) [3]: 19393.1; AUC for insulin (0-180 min.) [3]: 519.1
12 | CC#CC(CC(=O)O)c1ccc(OC/C=C(\C)CC/C=C(\C)CCC=C(C)C)cc1 (racemic) [Example F11, (3R/S)-3-(4-{[(2E,6E)-3,7,11-trimethyldodeca-2,6,10-trien-1-yl]oxy}-phenyl)hex-4-ynoic acid] | D (21-50% PTAK-875) | 
13 | CC#C[C@@H](CC(=O)O)c1ccc(OCCCC(F)(F)F)cc1 [Example F39, (3S)-3-[4-(4,4,4-trifluorobutoxy)phenyl]hex-4-ynoic acid] | B (81-120% PTAK-875) | 
14 | CC#C[C@@H](CC(=O)O)c1ccc(OCCC(C)C)cc1 [Example F24, (3S)-3-[4-(3-methylbutoxy)phenyl]hex-4-ynoic acid] |  | MIN6Insulin @10 uM [2]: 2.627; AUC for glucose (0-540 min.) [3]: 24289.7; AUC for insulin (0-180 min.) [3]: 329.0; melting point: 26.4 to 27.1 °C
15 | CC#C[C@@H](CC(=O)O)c1ccc(OCCCCC(F)(F)F)cc1 [Example F40, (3S)-3-{4[(5,5,5-trifluoropentyl)oxy]phenyl}hex-4-ynoic acid] | B (81-120% PTAK-875) | 
16 | CC#C[C@@H](CC(=O)O)c1ccc(OC/C=C/C=C/C)cc1 [Example F19, (3S)-3-{4-[(2E,4E)-hexa-2,4-dien-1-yloxy]phenyl}hex-4-ynoic acid] | A (>120% PTAK-875) | 
17 | CC(C)C[C@H](CN)CC(=O)O [Pregabalin, reference compound] |  | Applied pressure causing the response, sick animal (neuropathic) after compound administration ([4]; 3 mg/kg p.o.): 2.04 g; Applied pressure causing the response, sick animal (neuropathic) after compound administration ([4]; 10 mg/kg p.o.): 2.65 g; Applied pressure causing the response, sick animal (neuropathic) after compound administration ([4]; 30 mg/kg p.o.): 4.11 g
18 | C=CCCCOc1ccc([C@@H](C#CC)CC(=O)O)cc1 [Example F20, (3S)-3-[4-(pent-4-en-1-yloxy)phenyl]hex-4-ynoic acid] | B (81-120% PTAK-875) | 
19 | CC#CCCOc1ccc([C@@H](C#CC)CC(=O)O)cc1 [Example F21, (3S)-3-[4-(pent-3-yn-1-yloxy)phenyl]hex-4-ynoic acid] | C (51-80% PTAK-875) | 
20 | CC#C[C@@H](CC(=O)O)c1ccc(OCC=C(C)C)cc1 [Example F28, (3S)-3-{4[(3-methylbut-2-en-1-yl)oxy]phenyl}hex-4-ynoic acid] |  | MIN6Insulin @10 uM [2]: 2.782; AUC for glucose (0-540 min.) [3]: 28377.4; AUC for insulin (0-180 min.) [3]: 499.2; melting point: 52.1 to 53.1 °C
21 | CC#C[C@@H](CC(=O)O)c1ccc(OCc2cccc(-c3ccc(C(F)(F)F)cc3)c2)cc1 [Example R2, (3S)-3-[4-({3-[4-(trifluoromethyl)phenyl]phenyl}methoxy)phenyl]-hex-4-ynoic acid, reference compound] |  | MIN6Insulin @10 uM [2]: 1.567; insulin plasma level [5]: enhanced insulin plasma level
22 | CC#C[C@@H](CC(=O)O)c1ccc(OC(C)C(C)C)cc1 (mixture of isomers) [Example F13, (3S)-3-(4-{[(2R/S)-3-methylbutan-2-yl]oxy}phenyl)hex-4-ynoic acid] | A (>120% PTAK-875) | 
23 | CC#C[C@@H](CC(=O)O)c1ccc(OC/C=C(\C)CCC=C(C)C)cc1 [Example F6, (3S)-3-(4-{[(2E)-3,7-dimethylocta-2,6-dien-1-yl]oxy}phenyl)hex-4-ynoic acid] |  | AUC for glucose (0-540 min.) [3]: 25184.1; AUC for insulin (0-180 min.) [3]: 492.5
24 | CC#C[C@@H](CC(=O)O)c1ccc(OCCC(C)(C)C)cc1 [Example F27, (3S)-3-[4-(3,3-dimethylbutoxy)phenyl]hex-4-ynoic acid] | D (21-50% PTAK-875) | 
25 | CC#C[C@@H](CC(=O)O)c1ccc(OC(CC)CC)cc1 [Example F17, (3S)-3-[4-(pentan-3-yloxy)phenyl]hex-4-ynoic acid] | E (<20% PTAK-875) | 
26 | CC#C[C@@H](CC(=O)O)c1ccc(OCCCCCC)cc1 [Example F4, (3S)-3-[4-(hexyloxy)phenyl]hex-4-ynoic acid] | A (>120% PTAK-875) | 
